Measured values published in ChEMBL document CHEMBL3885881, “DrugMatrix”.

Species: Rattus norvegicus
Experiment: DrugMatrix - Regimen: Daily Repeat
Assay type: toxicity, organism-based, Sprague-Dawley
Parameters: regimen Daily Repeat, gender Male, age 6-8 weeks
Details: in vivo, po, route oral GAVAGE, vehicle 100 % WATER; for ABSOLUTE BASOPHIL / ABSOLUTE EOSINOPHIL / ABSOLUTE LYMPHOCYTE / ABSOLUTE MONOCYTE / ABSOLUTE SEGMENTED NEUTROPHIL / BASOPHIL / EOSINOPHIL / ERYTHROCYTE COUNT / HEMATOCRIT / HEMOGLOBIN / LEUKOCYTE COUNT / LYMPHOCYTE / MEAN CORPUSCULAR HEMOGLOBIN / MEAN CORPUSCULAR HEMOGLOBIN CONCENTRATION / MONOCYTE / NEUTROPHIL / NUCLEATED RED BLOOD CELLS / PLATELET COUNT: tissue Blood; for ALANINE AMINOTRANSFERASE / ALBUMIN / ALKALINE PHOSPHATASE / ASPARTATE AMINOTRANSFERASE / BLOOD UREA NITROGEN / CARBON DIOXIDE / CHLORIDE / CREATINE PHOSPHOKINASE / CREATININE / GLUCOSE / LACTATE DEHYDROGENASE / LIPASE / PHOSPHORUS / POTASSIUM / SODIUM / TOTAL BILIRUBIN / TOTAL PROTEIN / URIC ACID / CHOLESTEROL: tissue Plasma
[1] = 35 mg/kg, 120 h, dose level Low, time 5 day
[2] = 1300 mg/kg, 72 h, dose level High, time 3 day
[3] = 1300 mg/kg, 120 h, dose level High, time 5 day

Question: Which results are given for Nc1ccn([C@@H]2CS[C@H](CO)O2)c(=O)n1 [LAMIVUDINE]?
Answer: ABSOLUTE BASOPHIL [1]: 0 CELLS/uL; ABSOLUTE EOSINOPHIL [1]: 0 CELLS/uL; ABSOLUTE LYMPHOCYTE [1]: 6530 CELLS/uL; ABSOLUTE MONOCYTE [1]: 98.67 CELLS/uL; ABSOLUTE SEGMENTED NEUTROPHIL [1]: 638 CELLS/uL; BASOPHIL [1]: 0%; EOSINOPHIL [1]: 0%; ERYTHROCYTE COUNT [1]: 5.57 x10E6/uL; HEMATOCRIT [1]: 34.73%; HEMOGLOBIN [1]: 13.6 G/DL; LEUKOCYTE COUNT [1]: 7.27 x10E3/uL; LYMPHOCYTE [1]: 89.67%; MEAN CORPUSCULAR HEMOGLOBIN [1]: 24.43 pg; MEAN CORPUSCULAR HEMOGLOBIN CONCENTRATION [1]: 39.2 G/DL; MONOCYTE [1]: 1.33%; NEUTROPHIL [1]: 9%; NUCLEATED RED BLOOD CELLS [1]: 0.33 /100WBC; PLATELET COUNT [1]: 1079.33 x10E3/uL; ALANINE AMINOTRANSFERASE [1]: 45.33 u/L; ALBUMIN [1]: 4.1 G/DL; ALKALINE PHOSPHATASE [1]: 359.67 u/L; ASPARTATE AMINOTRANSFERASE [1]: 82.67 u/L; BLOOD UREA NITROGEN [1]: 16.67 mg/dL; CARBON DIOXIDE [1]: 31.33 mmol/L; CHLORIDE [1]: 100.33 MEQ/L; CREATINE PHOSPHOKINASE [1]: 391.67 u/L; CREATININE [1]: 0.16 mg/dL; GLUCOSE [1]: 152 mg/dL; LACTATE DEHYDROGENASE [1]: 141.33 u/L; LIPASE [1]: 8.33 u/L; PHOSPHORUS [1]: 11.47 mg/dL; POTASSIUM [1]: 5.48 MEQ/L; SODIUM [1]: 144.47 MEQ/L; TOTAL BILIRUBIN [1]: 0.2 mg/dL; TOTAL PROTEIN [1]: 6.13 G/DL; URIC ACID [1]: 0.6 mg/dL; ABSOLUTE BASOPHIL [2]: 0 CELLS/uL; ABSOLUTE EOSINOPHIL [2]: 0 CELLS/uL; ABSOLUTE LYMPHOCYTE [2]: 11276.67 CELLS/uL; ABSOLUTE MONOCYTE [2]: 81 CELLS/uL; ABSOLUTE SEGMENTED NEUTROPHIL [2]: 842.33 CELLS/uL; BASOPHIL [2]: 0%; EOSINOPHIL [2]: 0%; ERYTHROCYTE COUNT [2]: 5.54 x10E6/uL; HEMATOCRIT [2]: 34.33%; HEMOGLOBIN [2]: 13.53 G/DL; LEUKOCYTE COUNT [2]: 12.2 x10E3/uL; LYMPHOCYTE [2]: 92.33%; MEAN CORPUSCULAR HEMOGLOBIN [2]: 24.43 pg; MEAN CORPUSCULAR HEMOGLOBIN CONCENTRATION [2]: 39.4 G/DL; MONOCYTE [2]: 0.67%; NEUTROPHIL [2]: 7%; NUCLEATED RED BLOOD CELLS [2]: 0.33 /100WBC; PLATELET COUNT [2]: 1155.33 x10E3/uL; ALANINE AMINOTRANSFERASE [2]: 45.67 u/L; ALBUMIN [2]: 4 G/DL; ALKALINE PHOSPHATASE [2]: 373.67 u/L; ASPARTATE AMINOTRANSFERASE [2]: 80 u/L; BLOOD UREA NITROGEN [2]: 10.67 mg/dL; CARBON DIOXIDE [2]: 27 mmol/L; CHLORIDE [2]: 102.33 MEQ/L; CHOLESTEROL [2]: 78.67 mg/dL; CREATINE PHOSPHOKINASE [2]: 337 u/L; CREATININE [2]: 0.17 mg/dL; GLUCOSE [2]: 141 mg/dL; LACTATE DEHYDROGENASE [2]: 297.67 u/L; LIPASE [2]: 9.67 u/L; PHOSPHORUS [2]: 11.83 mg/dL; POTASSIUM [2]: 6.19 MEQ/L; SODIUM [2]: 143.47 MEQ/L; TOTAL BILIRUBIN [2]: 0.13 mg/dL; TOTAL PROTEIN [2]: 5.8 G/DL; URIC ACID [2]: 1.57 mg/dL; ABSOLUTE BASOPHIL [3]: 0 CELLS/uL; ABSOLUTE EOSINOPHIL [3]: 61 CELLS/uL; ABSOLUTE LYMPHOCYTE [3]: 14479 CELLS/uL; ABSOLUTE MONOCYTE [3]: 224.33 CELLS/uL; ABSOLUTE SEGMENTED NEUTROPHIL [3]: 1569 CELLS/uL; BASOPHIL [3]: 0%; EOSINOPHIL [3]: 0.33%; ERYTHROCYTE COUNT [3]: 5.68 x10E6/uL; HEMATOCRIT [3]: 36.2%; HEMOGLOBIN [3]: 13.93 G/DL; LEUKOCYTE COUNT [3]: 16.33 x10E3/uL; LYMPHOCYTE [3]: 88.67%; MEAN CORPUSCULAR HEMOGLOBIN [3]: 24.5 pg; MEAN CORPUSCULAR HEMOGLOBIN CONCENTRATION [3]: 38.5 G/DL; MONOCYTE [3]: 1.33%; NEUTROPHIL [3]: 9.67%; NUCLEATED RED BLOOD CELLS [3]: 0 /100WBC; PLATELET COUNT [3]: 1204.33 x10E3/uL; ALANINE AMINOTRANSFERASE [3]: 50 u/L; ALBUMIN [3]: 3.9 G/DL; ALKALINE PHOSPHATASE [3]: 303.67 u/L; ASPARTATE AMINOTRANSFERASE [3]: 84.33 u/L; BLOOD UREA NITROGEN [3]: 15 mg/dL; CARBON DIOXIDE [3]: 24.33 mmol/L; CHLORIDE [3]: 102 MEQ/L; CHOLESTEROL [3]: 70 mg/dL; CREATINE PHOSPHOKINASE [3]: 295.33 u/L; CREATININE [3]: 0.2 mg/dL; GLUCOSE [3]: 162.67 mg/dL; LACTATE DEHYDROGENASE [3]: 239 u/L; LIPASE [3]: 11 u/L; PHOSPHORUS [3]: 11.9 mg/dL; POTASSIUM [3]: 6.04 MEQ/L; SODIUM [3]: 143.87 MEQ/L; TOTAL BILIRUBIN [3]: 0.17 mg/dL; TOTAL PROTEIN [3]: 5.73 G/DL; URIC ACID [3]: 1.53 mg/dL
